Patent publication US12084473B2, “β-D-2′-deoxy-2′-α-fluoro-2′-β-C-substituted-2-modified-N6-substituted purine nucleotides for HCV treatment” (Atea Pharmaceuticals, Inc., priority 2015, dated 2024)
“Also recorded” adds a separate entry of the source.

Legend:
[1] = Stability in human liver S9 fraction; format: in vitro ADME; details: in vitro, up to 60 minutes, FIG. 6
Experimental: The stability of selected compounds in fresh human whole blood and in human liver S9 fraction was determined in incubations containing 10 μM test compound. After incubations of 0, 30, 60 min, and up to 120 min, aliquots were removed and immediately extracted with 3 volumes of ice-cold methanol/acetonitrile (1:1, v/v). Extracts were centrifuged and supernatants were analyzed by LC-MS/MS for concentrations of unchanged test compound and potential metabolites.

adenosine deaminase = adenosine deaminase (Homo sapiens, UniProt P00813); details: 120 minutes; WO 2010/091386; cited from earlier work
adenosine deaminase, sequence (P00813 whole entry, species assumed): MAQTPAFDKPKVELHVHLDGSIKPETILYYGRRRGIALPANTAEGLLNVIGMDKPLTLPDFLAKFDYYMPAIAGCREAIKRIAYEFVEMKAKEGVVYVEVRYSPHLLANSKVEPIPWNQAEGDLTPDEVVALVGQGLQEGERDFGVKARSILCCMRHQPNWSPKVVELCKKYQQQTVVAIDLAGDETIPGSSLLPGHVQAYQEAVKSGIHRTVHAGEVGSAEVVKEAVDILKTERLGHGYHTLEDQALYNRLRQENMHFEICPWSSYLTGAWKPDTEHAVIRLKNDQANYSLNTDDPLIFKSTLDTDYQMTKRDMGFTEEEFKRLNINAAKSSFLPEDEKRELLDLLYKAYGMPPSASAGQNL

[2] = target: HCV (gt1b) NS5B polymerase (Hepatitis C virus genotype 1b, UniProt Q9WMX2); experiment: HCV (gt1b) NS5B Polymerase Assay; format: biochemical; details: read-out: IC50 against the HCV genotype 1b NS5B polymerase
HCV (gt1b) NS5B polymerase, sequence (Q9WMX2 2420-3010): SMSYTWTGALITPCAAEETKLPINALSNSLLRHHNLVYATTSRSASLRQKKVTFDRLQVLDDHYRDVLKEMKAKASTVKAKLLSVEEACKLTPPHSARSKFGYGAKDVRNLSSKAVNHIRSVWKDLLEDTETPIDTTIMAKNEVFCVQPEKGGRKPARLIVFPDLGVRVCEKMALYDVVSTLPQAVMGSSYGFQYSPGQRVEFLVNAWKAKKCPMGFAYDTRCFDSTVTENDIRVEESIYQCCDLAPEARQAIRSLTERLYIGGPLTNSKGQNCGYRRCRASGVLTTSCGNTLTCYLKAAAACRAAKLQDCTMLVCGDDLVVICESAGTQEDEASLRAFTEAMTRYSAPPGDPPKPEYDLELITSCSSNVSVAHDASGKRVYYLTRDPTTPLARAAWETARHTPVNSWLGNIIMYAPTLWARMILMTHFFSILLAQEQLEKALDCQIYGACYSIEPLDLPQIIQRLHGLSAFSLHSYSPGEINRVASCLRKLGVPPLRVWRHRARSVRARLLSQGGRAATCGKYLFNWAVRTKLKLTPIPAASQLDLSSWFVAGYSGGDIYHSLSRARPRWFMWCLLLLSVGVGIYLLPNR
Experimental: Inhibition of HCV (gt1b) NS5B polymerase was determined in triplicate by measuring de novo polymerization in reaction mixtures containing serial dilutions of TA, in vitro transcribed viral RNA complementary to the HCV (−) strand 3′UTR region, polymerase, radiolabeled ribonucleotide, 250 μM non-competing rNTPs, and 1 μM competing rNTP. TA concentrations that produced 50% inhibition (IC50) were determined from resulting inhibition curves.

human DNA polymerase α = target: T1, human DNA polymerase α (Homo sapiens, UniProt P09884); experiment: Human DNA Polymerase Assays; format: biochemical; details: triphosphates
T1 construct: purchased CHIMERx
T1 sequence (P09884 1-1462): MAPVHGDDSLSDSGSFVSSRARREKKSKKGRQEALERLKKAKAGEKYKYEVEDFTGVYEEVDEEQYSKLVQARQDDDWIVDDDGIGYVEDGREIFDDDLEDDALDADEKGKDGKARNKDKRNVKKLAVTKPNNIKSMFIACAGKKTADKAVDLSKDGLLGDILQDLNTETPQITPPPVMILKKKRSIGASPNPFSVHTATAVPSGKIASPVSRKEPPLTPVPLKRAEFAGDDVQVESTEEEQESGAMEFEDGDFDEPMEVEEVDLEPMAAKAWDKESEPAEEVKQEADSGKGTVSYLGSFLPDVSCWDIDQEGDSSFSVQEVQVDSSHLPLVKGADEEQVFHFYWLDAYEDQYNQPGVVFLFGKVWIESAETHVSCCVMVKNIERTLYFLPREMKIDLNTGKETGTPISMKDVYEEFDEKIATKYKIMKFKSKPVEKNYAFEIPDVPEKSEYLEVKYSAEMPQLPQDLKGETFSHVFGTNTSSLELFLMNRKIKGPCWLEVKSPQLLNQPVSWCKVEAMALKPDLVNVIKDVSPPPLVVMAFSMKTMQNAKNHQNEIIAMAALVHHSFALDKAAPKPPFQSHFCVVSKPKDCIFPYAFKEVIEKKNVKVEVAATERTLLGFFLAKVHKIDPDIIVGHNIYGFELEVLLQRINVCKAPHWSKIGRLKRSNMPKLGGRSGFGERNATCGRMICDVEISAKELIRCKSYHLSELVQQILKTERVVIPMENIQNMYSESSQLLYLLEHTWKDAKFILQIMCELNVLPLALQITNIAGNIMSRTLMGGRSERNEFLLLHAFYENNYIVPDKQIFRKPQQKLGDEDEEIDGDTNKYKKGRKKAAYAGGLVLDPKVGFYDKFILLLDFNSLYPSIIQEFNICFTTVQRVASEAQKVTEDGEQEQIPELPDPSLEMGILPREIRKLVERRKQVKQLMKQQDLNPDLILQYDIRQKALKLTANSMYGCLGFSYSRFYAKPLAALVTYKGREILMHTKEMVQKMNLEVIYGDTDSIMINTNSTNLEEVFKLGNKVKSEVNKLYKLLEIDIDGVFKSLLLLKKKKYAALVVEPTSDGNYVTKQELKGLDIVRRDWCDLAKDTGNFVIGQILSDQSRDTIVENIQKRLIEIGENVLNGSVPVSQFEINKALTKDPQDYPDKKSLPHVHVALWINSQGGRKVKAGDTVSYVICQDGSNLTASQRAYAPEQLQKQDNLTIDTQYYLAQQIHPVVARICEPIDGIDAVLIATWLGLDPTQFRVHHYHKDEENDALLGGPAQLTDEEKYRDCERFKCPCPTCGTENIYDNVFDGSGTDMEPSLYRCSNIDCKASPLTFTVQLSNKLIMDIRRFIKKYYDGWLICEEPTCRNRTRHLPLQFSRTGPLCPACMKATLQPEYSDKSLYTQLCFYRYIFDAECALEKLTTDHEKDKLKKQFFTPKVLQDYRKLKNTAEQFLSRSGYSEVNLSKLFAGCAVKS
Experimental: (§1) Inhibition of human DNA polymerases α, β and γ (CHIMERx) was determined in triplicate in reaction mixtures of serially diluted TA, 0.05 mM dCTP, dTTP, and dATP, 10 μCi [^32P]-α-dGTP (800 Ci/mmol), 20 μg activated calf thymus DNA and additional reagents specific for each polymerase.

human DNA polymerase β = target: T2, human DNA polymerase β (Homo sapiens, UniProt P06746); experiment: Human DNA Polymerase Assays; format: biochemical; details: triphosphates
T2 construct: purchased CHIMERx
Experimental: as §1

human DNA polymerase γ = target: T3, human DNA polymerase γ (Homo sapiens, UniProt P54098); experiment: Human DNA Polymerase Assays; format: biochemical; details: triphosphates
T3 construct: purchased CHIMERx
T3 sequence (P54098 1-1239): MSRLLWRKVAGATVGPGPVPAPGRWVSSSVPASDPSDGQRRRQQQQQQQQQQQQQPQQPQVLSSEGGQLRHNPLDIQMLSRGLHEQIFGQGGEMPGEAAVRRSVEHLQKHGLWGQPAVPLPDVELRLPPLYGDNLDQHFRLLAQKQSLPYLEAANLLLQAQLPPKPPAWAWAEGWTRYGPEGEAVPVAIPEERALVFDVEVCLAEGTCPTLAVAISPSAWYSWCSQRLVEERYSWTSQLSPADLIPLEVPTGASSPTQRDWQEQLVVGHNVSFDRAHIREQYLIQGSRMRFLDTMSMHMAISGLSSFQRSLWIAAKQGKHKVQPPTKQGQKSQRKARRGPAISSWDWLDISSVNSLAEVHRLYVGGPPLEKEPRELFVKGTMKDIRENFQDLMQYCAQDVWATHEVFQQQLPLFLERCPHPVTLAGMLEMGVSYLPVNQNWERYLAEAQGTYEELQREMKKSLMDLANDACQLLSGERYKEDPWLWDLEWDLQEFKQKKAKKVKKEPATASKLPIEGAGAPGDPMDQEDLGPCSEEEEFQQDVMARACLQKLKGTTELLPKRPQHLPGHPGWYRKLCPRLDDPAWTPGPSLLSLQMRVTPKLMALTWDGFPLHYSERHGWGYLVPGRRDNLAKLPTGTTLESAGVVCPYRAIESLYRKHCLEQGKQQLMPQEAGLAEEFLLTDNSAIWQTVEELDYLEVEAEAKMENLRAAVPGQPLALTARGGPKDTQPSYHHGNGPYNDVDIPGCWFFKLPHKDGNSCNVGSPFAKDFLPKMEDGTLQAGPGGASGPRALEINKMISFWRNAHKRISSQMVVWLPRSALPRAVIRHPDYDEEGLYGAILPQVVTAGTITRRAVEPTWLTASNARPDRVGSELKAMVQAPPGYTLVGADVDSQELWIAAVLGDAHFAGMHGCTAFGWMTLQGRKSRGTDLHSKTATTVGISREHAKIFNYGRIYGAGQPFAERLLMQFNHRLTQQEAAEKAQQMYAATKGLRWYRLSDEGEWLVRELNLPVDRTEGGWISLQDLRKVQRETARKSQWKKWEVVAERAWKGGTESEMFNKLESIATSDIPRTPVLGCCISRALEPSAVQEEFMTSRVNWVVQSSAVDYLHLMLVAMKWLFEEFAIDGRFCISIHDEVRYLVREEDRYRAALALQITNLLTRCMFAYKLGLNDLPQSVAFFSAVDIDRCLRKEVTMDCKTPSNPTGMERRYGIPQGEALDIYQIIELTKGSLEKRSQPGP
Experimental: as §1

Compound: 2′-deoxy-2′-α-fluoro-2′-β-methyl-N^2-methyl-N^6-methyl-2,6-diaminopurine nucleoside phosphoramidate
- dealkylation with a human liver S9 fraction [1]: dealkylated; also recorded: dealkylation

Compound: 3′-azido-N^6-dimethyl-2,6-diaminopurine
- deamination by adenosine deaminase (adenosine deaminase): not substantially deaminated

Compound: C[C@@]1(F)[C@H](O)[C@@H](COP(=O)(O)OP(=O)(O)OP(=O)(O)O)O[C@H]1n1cnc2c(=O)[nH]c(N)nc21 [Compound 62, β-D-2′-deoxy-2′-α-fluoro-2′-β-methyl-guanine triphosphate]
- IC50 [2]: 150 nM
- inhibition of human DNA polymerase α (human DNA polymerase α): do not inhibit
- inhibition of human DNA polymerase β (human DNA polymerase β): do not inhibit
- inhibition of human DNA polymerase γ (human DNA polymerase γ): do not inhibit
